Assays:
Test in all cases: relative viability (nuclei count vs DMSO), 5 days (fraction); higher = more cells survive
NCI-H1944 = system: NCI-H1944
In short: (§1)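 Dosing by pin tool came one day after lung cancer cell lines were seeded in 1536-well plates, using either one drug or a fixed anchor-drug dose plus five library-drug doses (not always all listed) in √10 steps. After 5 days, nuclei were counted on 4× images. Relative viability is treated-well nuclei count divided by vehicle-well nuclei count, and values are medians of duplicate plates.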

NCI-H520 = system: NCI-H520
In short: as §1

PC-14 = system: PC-14
In short: as §1

NCI-H2228 = system: NCI-H2228
In short: as §1

NCI-H838 = system: NCI-H838
In short: as §1

CAL-12T = system: CAL-12T
In short: as §1

NCI-H1395 = system: NCI-H1395
In short: as §1

NCI-H647 = system: NCI-H647
In short: as §1

NCI-H1993 = system: NCI-H1993
In short: as §1

NCI-H661 = system: NCI-H661
In short: as §1

SK-LU-1 = system: SK-LU-1
In short: as §1

NCI-H1734 = system: NCI-H1734
In short: as §1

HCC-366 = system: HCC-366
In short: as §1

H3255 = system: H3255
In short: as §1

NCI-H1975 = system: NCI-H1975
In short: as §1

LU99A = system: LU99A
In short: as §1

PC-3 [JPC-3] = system: PC-3 [JPC-3]
In short: as §1

NCI-H1666 = system: NCI-H1666
In short: as §1

HARA = system: HARA
In short: as §1

HCC-15 = system: HCC-15
In short: as §1

COR-L 105 = system: COR-L 105
In short: as §1

NCI-H3122 = system: NCI-H3122
In short: as §1

LC-2-ad = system: LC-2-ad
In short: as §1

Cc1cnc(-c2cnc(NCCNc3ccc(C#N)cn3)nc2-c2ccc(Cl)cc2Cl)[nH]1 + Cc1nc(NC(=O)N2CCC[C@H]2C(N)=O)sc1-c1ccnc(C(C)(C)C(F)(F)F)c1 [Alpelisib] (partner 2 µM) showed a relative viability (NCI-H1944; first compound 0.08 µM) of 0.827, a relative viability (NCI-H1944; first compound 0.8 µM) of 0.84 and a relative viability (NCI-H1944; first compound 2.53 µM) of 0.824. For the same compound, the relative viability (NCI-H520; first compound 0.08 µM) was 0.926, the relative viability (NCI-H520; first compound 0.253 µM) was 0.791 and the relative viability (NCI-H520; first compound 0.8 µM) was 1.11. It also gave a relative viability (NCI-H520; first compound 2.53 µM) of 1.04, a relative viability (PC-14; first compound 0.08 µM) of 0.927 and a relative viability (PC-14; first compound 0.253 µM) of 0.834. It also gave a relative viability (PC-14; first compound 0.8 µM) of 0.924, a relative viability (PC-14; first compound 2.53 µM) of 0.802 and a relative viability (NCI-H2228; first compound 0.08 µM) of 0.931. It also gave a relative viability (NCI-H2228; first compound 0.253 µM) of 0.7, a relative viability (NCI-H2228; first compound 0.8 µM) of 0.987 and a relative viability (NCI-H2228; first compound 2.53 µM) of 0.717. For the same compound, the relative viability (NCI-H838; first compound 0.08 µM) was 1.06, the relative viability (NCI-H838; first compound 0.253 µM) was 0.951 and the relative viability (NCI-H838; first compound 0.8 µM) was 1.18. The relative viability (NCI-H838; first compound 2.53 µM) was 1.41, the relative viability (CAL-12T; first compound 0.08 µM) was 1.2 and the relative viability (CAL-12T; first compound 0.253 µM) was 1.16. The relative viability (CAL-12T; first compound 0.8 µM) was 1.2, the relative viability (CAL-12T; first compound 2.53 µM) was 0.848 and the relative viability (NCI-H1395; first compound 0.08 µM) was 1.23. The relative viability (NCI-H1395; first compound 0.253 µM) was 1.03, the relative viability (NCI-H1395; first compound 0.8 µM) was 1.41 and the relative viability (NCI-H1395; first compound 2.53 µM) was 0.971. It also gave a relative viability (NCI-H647; first compound 0.08 µM) of 1.19, a relative viability (NCI-H647; first compound 0.253 µM) of 1.08 and a relative viability (NCI-H647; first compound 0.8 µM) of 1.05. It also gave a relative viability (NCI-H647; first compound 2.53 µM) of 1.22, a relative viability (NCI-H1993; first compound 0.08 µM) of 0.715 and a relative viability (NCI-H1993; first compound 0.253 µM) of 0.72. For the same compound, the relative viability (NCI-H1993; first compound 0.8 µM) was 0.683, the relative viability (NCI-H1993; first compound 2.53 µM) was 0.694 and the relative viability (NCI-H661; first compound 0.08 µM) was 0.419. It also gave a relative viability (NCI-H661; first compound 0.253 µM) of 0.645, a relative viability (NCI-H661; first compound 0.8 µM) of 0.76 and a relative viability (NCI-H661; first compound 2.53 µM) of 0.654. For the same compound, the relative viability (SK-LU-1; first compound 0.08 µM) was 1.09, the relative viability (SK-LU-1; first compound 0.253 µM) was 0.931 and the relative viability (SK-LU-1; first compound 0.8 µM) was 1.28. It also gave a relative viability (SK-LU-1; first compound 2.53 µM) of 1.18, a relative viability (NCI-H1734; first compound 0.08 µM) of 0.766 and a relative viability (NCI-H1734; first compound 0.253 µM) of 0.673. The relative viability (NCI-H1734; first compound 0.8 µM) was 0.656, the relative viability (NCI-H1734; first compound 2.53 µM) was 0.633 and the relative viability (HCC-366; first compound 0.08 µM) was 0.369. It also gave a relative viability (HCC-366; first compound 0.253 µM) of 0.364, a relative viability (HCC-366; first compound 0.8 µM) of 0.33 and a relative viability (HCC-366; first compound 2.53 µM) of 0.32. For the same compound, the relative viability (H3255; first compound 0.08 µM) was 0.886, the relative viability (H3255; first compound 0.253 µM) was 0.618 and the relative viability (H3255; first compound 0.8 µM) was 0.802. The relative viability (H3255; first compound 2.53 µM) was 0.73, the relative viability (NCI-H1975; first compound 0.08 µM) was 0.667 and the relative viability (NCI-H1975; first compound 0.253 µM) was 0.571. The relative viability (NCI-H1975; first compound 0.8 µM) was 0.561, the relative viability (NCI-H1975; first compound 2.53 µM) was 0.52 and the relative viability (LU99A; first compound 0.08 µM) was 0.606. It also gave a relative viability (LU99A; first compound 0.253 µM) of 0.548, a relative viability (LU99A; first compound 0.8 µM) of 0.557 and a relative viability (LU99A; first compound 2.53 µM) of 0.516. The relative viability (PC-3 [JPC-3]; first compound 0.08 µM) was 1, the relative viability (PC-3 [JPC-3]; first compound 0.253 µM) was 0.934 and the relative viability (PC-3 [JPC-3]; first compound 0.8 µM) was 1.02. The relative viability (PC-3 [JPC-3]; first compound 2.53 µM) was 1.01, the relative viability (NCI-H1666; first compound 0.08 µM) was 1 and the relative viability (NCI-H1666; first compound 0.253 µM) was 0.919. It also gave a relative viability (NCI-H1666; first compound 0.8 µM) of 0.831, a relative viability (NCI-H1666; first compound 2.53 µM) of 1.07 and a relative viability (HARA; first compound 0.08 µM) of 0.994. For the same compound, the relative viability (HARA; first compound 0.253 µM) was 0.673, the relative viability (HARA; first compound 0.8 µM) was 0.746 and the relative viability (HARA; first compound 2.53 µM) was 0.827. It also gave a relative viability (HCC-15; first compound 0.08 µM) of 0.857, a relative viability (HCC-15; first compound 0.253 µM) of 0.815 and a relative viability (HCC-15; first compound 0.8 µM) of 0.853. For the same compound, the relative viability (HCC-15; first compound 2.53 µM) was 0.881, the relative viability (COR-L 105; first compound 0.08 µM) was 0.994 and the relative viability (COR-L 105; first compound 0.253 µM) was 0.927. It also gave a relative viability (COR-L 105; first compound 0.8 µM) of 1.11, a relative viability (COR-L 105; first compound 2.53 µM) of 0.612 and a relative viability (NCI-H3122; first compound 0.08 µM) of 0.858. For the same compound, the relative viability (NCI-H3122; first compound 0.253 µM) was 0.771, the relative viability (NCI-H3122; first compound 0.8 µM) was 0.725 and the relative viability (NCI-H3122; first compound 2.53 µM) was 0.762. The relative viability (LC-2-ad; first compound 0.08 µM) was 1.04, the relative viability (LC-2-ad; first compound 0.8 µM) was 0.832 and the relative viability (LC-2-ad; first compound 2.53 µM) was 0.892.
